According to US9732101B2, “Bioreversible boronates for delivery of molecules into cells” (WISCONSIN ALUMNI RESEARCH FOUNDATION, priority 2012, dated 2017):
Like-named read-outs stand apart in the source and are kept apart here.

Experiments:
[1] = Competition with alizarin red S; 0.10M sodium phosphate buffer, pH 7.4; refs [b], [e]; cited from earlier work
[2] = Ka of boronic acids for saccharides by 1H NMR (H2O containing 2% D2O); assay type: binding; conditions: 1H NMR in H2O containing D2O (2% v/v); 0.10M sodium phosphate buffer, pH 7.4; this work
Protocol: (§1) Methodology to determine the values of Ka for boronic acids and saccharides was adapted from work by Hall and coworkers. [13a, 13b]
(§2) A boronic acid (B) and a saccharide (S) were assumed to bind in one modality, B·S:
(§3) The [B·S]/[B] ratio was determined by the integration of aryl protons of the boronic acid.saccharide complex and the free boronic acid. The individual [B], [B·S], and [S] can be calculated from eq. 1-3.
(§4) Each value of Ka arose from at least two independent experiments with freshly prepared solutions, and each experiment consisted of a titration with 6-9 different concentrations.
(§5) All NMR spectra were analyzed with Topspin 3.0 software from Bruker AXS. NMR experiments were done in a 0.10 M NaH2PO4 buffer, pH 7.4, containing D2O (2% v/v). ^1H NMR experiments consisted of the first increment of a 2D NOSY with gradients for improved water suppression. […]
To a 25-mL volumetric flask, D-glucose (2.25 g, 12.5 mmol) and ˜20 mL of solution 1 was added. […] The [B·S]/[B] ratio was determined as depicted in FIG. 15. A value for Ka was calculated for every concentration as described above.
To a 25-mL volumetric flask, D-glucose (2.25 g, 12.5 mmol) and ˜20 mL of solution 2 was added. […] The [B·S]/[B] ratio was determined as depicted in FIG. 16. […] A value for Ka was calculated for every concentration as described above.

[3] = Competition with alizarin red S; 0.10M sodium phosphate buffer, pH 7.4; ref [b]; cited from earlier work
[4] = 1H NMR in D2O (100% v/v); 0.10M sodium phosphate buffer, pH 7.4; ref [c]; cited from earlier work
[5] = 11B NMR in H2O/D2O/MeOH mixture; ref [d]; cited from earlier work
[6] = Ka of boronic acids for saccharides by 1H NMR (H2O containing 2% D2O); assay type: binding; conditions: 1H NMR in H2O containing D2O (2% v/v), 0.10M sodium phosphate buffer, pH 7.4, this work
Protocol: as §1, §2, §3, §4
All NMR spectra were analyzed with Topspin 3.0 software from Bruker AXS. NMR experiments were done in a 0.10 M NaH2PO4 buffer, pH 7.4, containing D2O (2% v/v). ^1H NMR experiments consisted of the first increment of a 2D NOSY with gradients for improved water suppression.
A. Representative Procedure for Making a Phenylboronic Acid Solution NaH2PO4 (3.0 g, 25 mmol) and PBA (phenylboronic acid, 458 mg, 3.75 mmol) were dissolved in distilled, deionized water in a volumetric flask (˜200 mL H2O, 5 mL D2O). The pH was adjusted carefully to 7.4 using 10 M NaOH, and additional water was added for a final volume of 250 mL. Final solutions were 15 mM in the boronic acid (PBA=solution 1; benzoboroxole=solution 2) in 0.10 M sodium phosphate monobasic buffer, pH 7.4, containing D2O (2% v/v).
To a 25-mL volumetric flask, D-fructose (674 mg, 3.75 mmol) and ˜20 mL of solution 1 was added. The solution was adjusted carefully to pH 7.4 by the addition of 10 M NaOH. (The volume of added NaOH was used in the calculation of the boronic acid concentration.) The volume was then increased to 25 mL by adding solution 1. […] The [B·S]/[B] ratio was determined for every concentration as follows. […]
To a 25-mL volumetric flask, D-fructose (674 mg, 3.75 mmol) and ˜20 mL of solution 2 was added. […] The [B·S]/[B] ratio was determined as depicted in FIG. 14. A value for Ka was calculated for every concentration as described above.

[7] = as above; assay type: binding; conditions: 1H NMR in H2O containing D2O (2% v/v); 0.10M sodium phosphate buffer, pH 7.4; this work; remark: listed apart in the source
Protocol: as §1, §2, §3, §4, §5
To a […] volumetric flask, Neu5Ac (1.53 g, 5.0 mmol) and ˜20 mL of solution 1 was added. […] The [B·S]/[B] ratio was determined as depicted in FIG. 17. A value for Ka was calculated for every concentration as described above.
To a […] volumetric flask, Neu5Ac (1.56 g, […]) and ˜20 mL of solution 2 was added. […] The Ka value was calculated for every concentration as previously described. The [B·S]/[B] ratio was determined as illustrated in FIGS. 18 and 19. […] A value for Ka was calculated for every concentration as described above.

[8] = 1H NMR in D2O (100% v/v); 0.10M sodium phosphate buffer, pH 7.4; ref [c]; cited from earlier work; remark: listed apart in the source
[9] = Competition with alizarin red S; 0.10M sodium phosphate buffer, pH 7.4; ref [b]; cited from earlier work; remark: listed apart in the source
[10] = ref 13b; cited from earlier work

Compound	Ka for D-glucose [1] [M⁻¹]	Ka for D-glucose [2] [M⁻¹]	Ka for Neu5Ac [3] [M⁻¹]	Ka for D-fructose [4] [M⁻¹]	Ka for Neu5Ac [5] [M⁻¹]	Ka for D-fructose [6] [M⁻¹]	Ka for Neu5Ac [7] [M⁻¹]	Ka for D-glucose [8] [M⁻¹]	Ka for D-fructose [9] [M⁻¹]	pKa of the HOB [10]	Ka for D-fructose ([6]; listed as benzoxaborole) [M⁻¹]
OB(O)c1ccccc1 [PBA, Phenylboronic acid]	4.6	5 ± 1	21	79	11.6 ± 1.9	128 ± 20	13 ± 1	0	160	–	–
OCc1ccccc1B(O)O [Benzoboroxole, 2-hydroxymethylphenylboronic acid]	31	28 ± 4	–	606	–	336 ± 43	43 ± 5	17	–	7.2	336
